From US12655139B2, “Isoxazolidines as RIPK1 inhibitors and use thereof” (SANOFI, priority 2020, dated 2026)
Like-named read-outs stand apart in the source and are kept apart here.

Experiments:
[1] = target: T1, hRIPK1 (aa 1-375) fusion protein (Homo sapiens, UniProt Q13546); assay: ADP-Glo kinase assay, RIPK1 autophosphorylation; format: biochemical
T1 construct: hRIPK1 (aa 1-375) fusion protein
T1 sequence (Q13546 1-375): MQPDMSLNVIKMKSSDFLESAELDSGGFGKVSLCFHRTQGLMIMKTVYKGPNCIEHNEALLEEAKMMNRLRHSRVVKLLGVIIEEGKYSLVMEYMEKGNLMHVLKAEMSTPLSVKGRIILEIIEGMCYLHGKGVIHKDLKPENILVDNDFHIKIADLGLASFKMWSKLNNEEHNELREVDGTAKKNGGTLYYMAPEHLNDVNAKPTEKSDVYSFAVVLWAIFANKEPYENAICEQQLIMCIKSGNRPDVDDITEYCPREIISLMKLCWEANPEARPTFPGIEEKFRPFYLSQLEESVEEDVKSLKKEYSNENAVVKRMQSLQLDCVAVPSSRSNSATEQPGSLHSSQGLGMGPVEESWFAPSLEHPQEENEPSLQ
Method: Evaluation of Receptor-Interacting Protein Kinase 1 Inhibition.
The catalytic activity of RIPK1 was measured by monitoring the conversion of Adenosine triphosphate (ATP) to Adenosine diphosphate (ADP) due to autophosphorylation using an ADP-Glo kinase kit (Promega, catalog no. V9104).
After another 240 minutes incubation at room temperature, 5 μl Promega ADP-Glo reagent I were added to quench the reaction and deplete unconsumed ATP. After an incubation period of 30 minutes, 10 μl Promega ADP-Glo detection reagent II were added resulting in conversion of ADP to ATP, which generates a light-reaction between luciferase and luciferin. Luminescence was quantified after 30 minutes with a Pherastar FS (BMG LABTECH, Ortenberg).
The adjustment was obtained by nonlinear regression using the Levenberg Marquardt algorithm.

U937 cells = assay: Cellular assay in U937 cells on cell death (necroptosis), TNFα/zVAD.fmk; format: cell-based
How it was run: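 U937 cells with 100 ng/ml TNFα plus 50 μM zVAD.fmk (pre-addition suspension levels) received 10 compound concentrations (10 μM–0.26 nM or 1 μM–0.07 nM) for 18–24 h at 37 °C. Live cells were read by MTS formazan absorbance at 490 nm after 4 h. % inhibition is relative to the maximal value without TNFα/zVAD.fmk.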

[2] = Homo sapiens, U-937, Key compound table 4, read-out: U937 IC50 (uM) Mean
[3] = Homo sapiens, U-937, Table 2, read-out: U937 IC50

| SMILES | IC50 ([1]; Key compound table 4) | IC50 (U937 cells; [2]) | IC50 ([1]; Table 1) | IC50 (U937 cells; [3]) | IC50 (U937 cells; Table 2, read-out: U937 IC50) |
| --- | --- | --- | --- | --- | --- |
| N#Cc1cncc([C@@H]2CCON2C(=O)C2CCN(c3ncc(F)c(C(N)=O)n3)CC2)c1 [Ex. 068] | 11 nM | 0.003 µM | – | – | – |
| N#Cc1cncc([C@@H]2CCON2C(=O)C2CCN(c3cncc(C(N)=O)n3)CC2)c1 [Ex. 71] | – | – | 25.6 nM | 0.964 µM | – |
| N#Cc1cncc([C@@H]2CCON2C(=O)C2CCN(c3cnc(C(N)=O)cn3)CC2)c1 [Ex. 072] | – | – | 25 nM | 0.554 µM | – |
| N#Cc1cncc([C@@H]2CCON2C(=O)C2CCN(c3ncnc(C(N)=O)c3F)CC2)c1 [Ex. 073] | – | – | 11 nM | 0.103 µM | – |
| NC(=O)c1nc(N2CCC(C(=O)N3OCC[C@H]3c3cnccn3)CC2)ncc1F [Ex. 075] | 8 nM | 0.003 µM | – | – | – |
| NC(=O)c1nc(N2CCC(C(=O)N3OCC[C@H]3c3cncc(F)c3)CC2)ncc1F [Ex. 080] | – | – | 10.3 nM | 0.00337 µM | – |
| Cc1ncc([C@@H]2CCON2C(=O)C2CCN(c3nccc(C(N)=O)n3)CC2)cc1C#N [Ex. 081] | – | – | 15.7 nM | 0.0297 µM | – |
| NC(=O)c1ccnc(N2CCC(C(=O)N3OCC[C@H]3c3ccc(Cl)cn3)CC2)n1 [Ex. 083] | – | – | 16.1 nM | 0.0495 µM | – |
| Cc1ncc([C@@H]2CCON2C(=O)C2CCN(c3ncc(F)c(C(N)=O)n3)CC2)cc1C#N [Ex. 085] | – | – | 15.3 nM | 0.0206 µM | – |
| Cc1cnc([C@@H]2CCON2C(=O)C2CCN(c3nccc(C(N)=O)n3)CC2)cn1 [Ex. 087] | – | – | 9.55 nM | 0.0505 µM | – |
| CCOC(=O)N1CC(NC(=O)c2ccnc(N3CCC(C(=O)N4OCC[C@H]4c4cncc(C#N)c4)CC3)n2)C1 [Ex. 088] | – | – | 33.6 nM | 0.158 µM | – |
| N#Cc1cncc([C@@H]2CCON2C(=O)[C@H]2CCN(c3nccc(C(N)=O)n3)C[C@@H]2F)c1 [Ex. 093] | – | – | 4.16 nM | 0.0193 µM | – |
| Cc1cncc([C@@H]2CCON2C(=O)C2CCN(c3ncc(C)c(C(N)=O)n3)CC2)n1 [Ex. 097] | – | – | 24 nM | 0.0415 µM | – |
| Cc1cnc(N2CCC(C(=O)N3OCC[C@H]3c3cncc(F)c3)CC2)nc1C(N)=O [Ex. 098] | – | – | 13.7 nM | 0.0325 µM | – |
| Cc1cnc(N2CCC(C(=O)N3OCC[C@H]3c3cnccn3)CC2)nc1C(N)=O [Ex. 99] | – | – | 22.3 nM | 0.054 µM | – |
| CSc1nc(N2CCC(C(=O)N3OCC[C@H]3c3cncc(C#N)c3)CC2)ncc1F [Ex. 103, 5-[(3S)-2-[1-(5-Fluoro-4-methylsulfanyl-pyrimidin-2-yl)piperidine-4-carbonyl]isoxazolidin-3-yl]pyridine-3-carbonitrile] | – | – | 17.5 nM | 0.00144 µM | – |
| C[S+]([O-])c1nc(N2CCC(C(=O)N3OCC[C@H]3c3cncc(C#N)c3)CC2)ncc1F (stereo partly drawn) [Ex. 104] | – | – | 13.4 nM | 0.736 µM | – |
| CS(=O)(=O)c1nc(N2CCC(C(=O)N3OCC[C@H]3c3cncc(C#N)c3)CC2)ncc1F [Ex. 105] | – | – | 11.2 nM | 7.94 µM | – |
| N#Cc1ccc([C@@H]2CCON2C(=O)C2CCN(c3ncc(F)c(C(N)=O)n3)CC2)nc1 [Ex. 106] | – | – | 42.9 nM | 0.548 µM | – |
| N#Cc1ccc([C@@H]2CCON2C(=O)C2CCN(c3cc(C(N)=O)ncn3)CC2)nc1 [Ex. 107] | – | – | 364 nM | 7.52 µM | – |
| N#Cc1ccc([C@@H]2CCON2C(=O)C2CCN(c3nccc(C(N)=O)n3)CC2)nc1 [Ex. 108] | – | – | 81.6 nM | 1.01 µM | – |
| Cc1cc([C@@H]2CCON2C(=O)C2CCN(c3cc(C(N)=O)ncn3)CC2)co1 [Ex. 109] | – | – | 19.3 nM | 0.00531 µM | – |
| N#Cc1cncc([C@@H]2CCON2C(=O)C2CCN(c3ncc(F)c(C#N)n3)CC2)c1 [Ex. 111] | – | – | 28.2 nM | 0.0116 µM | – |
| Cc1nsc(N2CCC(C(=O)N3OCC[C@H]3c3cncc(C#N)c3)CC2)n1 [Ex. 113] | – | – | 122 nM | 0.773 µM | – |
| COc1nc(N2CCC(C(=O)N3OCC[C@H]3c3cncc(C#N)c3)CC2)ncc1F [Ex. 114] | – | – | 14 nM | 0.00785 µM | – |
| N#Cc1cncc([C@@H]2CCON2C(=O)C2(F)CCN(c3nccc(C(N)=O)n3)CC2(F)F)c1 (stereo partly drawn) [Ex. 115] | – | – | 24.7 nM | 0.0627 µM | – |

| SMILES | IC50 ([1]; Key compound table 4) | IC50 (U937 cells; [2]) | IC50 ([1]; Table 1) | IC50 (U937 cells; [3]) | IC50 (U937 cells; Table 2, read-out: U937 IC50) |
| --- | --- | --- | --- | --- | --- |
| COc1nc(N2CCC(C(=O)N3OCC[C@H]3c3cncc(C)n3)CC2)ncc1F [Ex. 116] | – | – | 21.4 nM | 0.0045 µM | – |
| N#Cc1cncc([C@@H]2CCON2C(=O)C2CCN(c3cnc(Cl)nc3C(=O)O)CC2)c1 [Ex. 121] | – | – | > 33000 nM | 4.44 µM | – |
| N#Cc1cncc([C@@H]2CCON2C(=O)C2CCN(c3ncc(F)c(C(N)=O)n3)CC2F)c1 (stereo partly drawn) [Ex. 154] | – | – | 21.9 nM | – | 0.0388 µM |
| N#Cc1cncc([C@@H]2CCON2C(=O)C2CCN(c3ncc(F)c(C(N)=O)n3)CC2F)c1 (stereo partly drawn) [Ex. 155] | – | – | 16.5 nM | – | 0.00406 µM |
| N#Cc1cncc([C@@H]2CCON2C(=O)C2CCN(c3ccnc(C(N)=O)n3)CC2)c1 [Ex. 156] | – | – | 297 nM | 0.927 µM | – |
| N#Cc1cncc([C@@H]2CCON2C(=O)C2CCN(c3ccnc(Br)n3)CC2)c1 [Ex. 157] | – | – | 43.9 nM | 0.114 µM | – |
| N#Cc1cncc([C@@H]2CCON2C(=O)C2CCN(c3cc(Cl)ncn3)CC2)c1 [Ex. 159] | – | – | 31.8 nM | 0.0771 µM | – |
| O=C(O)c1nc(Cl)ncc1N1CCC(C(=O)N2OCC[C@H]2c2cnccn2)CC1 [Ex. 164] | – | – | 17500 nM | 1.97 µM | – |
| N#Cc1cncc([C@@H]2CCON2C(=O)C2CCN(c3cc(Br)ncn3)CC2)c1 [Ex. 165] | – | – | 25 nM | 0.0527 µM | – |
| N#Cc1cc([C@@H]2CCON2C(=O)C2CCN(c3ncc(F)c(C(N)=O)n3)CC2)cs1 [Ex. 166] | – | – | 37.2 nM | 0.0597 µM | – |
| N#Cc1cc([C@@H]2CCON2C(=O)C2CCN(c3ncc(F)c(C(N)=O)n3)CC2)co1 [Ex. 167] | – | – | 31.1 nM | 0.048 µM | – |
| N#Cc1cc([C@@H]2CCON2C(=O)C2CCN(c3nccc(C(N)=O)n3)CC2)cs1 [Ex. 168] | – | – | 45.4 nM | 0.0792 µM | – |
| Cc1nc([C@@H]2CCON2C(=O)C2CCN(c3ncc(F)c(C(N)=O)n3)CC2)cs1 [Ex. 170] | – | – | 21.7 nM | 0.0165 µM | – |
| N#Cc1cc([C@@H]2CCON2C(=O)C2CCN(c3nccc(C(N)=O)n3)CC2)co1 [Ex. 171] | – | – | 51.9 nM | 0.0858 µM | – |
| NC(=O)c1nc(N2CCC(C(=O)N3OCC[C@H]3c3ccccn3)CC2)ncc1F [Ex. 175] | – | – | 22.3 nM | 0.0446 µM | – |
| N#Cc1cc([C@@H]2CCON2C(=O)C2CCN(c3ncc(F)c(C(N)=O)n3)CC2)cnn1 [Ex. 178] | – | – | 112 nM | 1.3 µM | – |
| Cc1nc(Cl)nc(N2CCC(C(=O)N3OCC[C@H]3c3cnccn3)CC2)n1 [Ex. 180] | – | – | 32 nM | 1.05 µM | – |
| Nc1nc(Cl)nc(N2CCC(C(=O)N3OCC[C@H]3c3cnccn3)CC2)n1 [Ex. 184] | – | – | 3.26 nM | 0.00179 µM | – |
| N#Cc1nc([C@@H]2CCON2C(=O)C2CCN(c3ncc(F)c(C(N)=O)n3)CC2)cs1 [Ex. 189] | – | – | 30.3 nM | 0.102 µM | – |
| N#Cc1cncc([C@@H]2CCON2C(=O)C2CCN(c3nccc(C(N)=O)n3)CC2)c1 [compound 4] | – | – | 23.8 nM | 0.0221 µM | – |
| Cc1cncc([C@@H]2CCON2C(=O)C2CCN(c3nccc(C(N)=O)n3)CC2)n1 [compound 44] | – | – | 9.31 nM | 0.00847 µM | – |
| N#Cc1cncc([C@@H]2CCON2C(=O)C2CCN(c3ncc(F)c(C(N)=O)n3)CC2)c1 [compound 68] | – | – | 14.7 nM | 0.00325 µM | – |
| NC(=O)c1nc(N2CCC(C(=O)N3OCC[C@H]3c3cnccn3)CC2)ncc1F [compound 75] | – | – | 8.46 nM | 0.00273 µM | – |
| CC1(CCNC(=O)c2ccnc(N3CCC(C(=O)N4OCC[C@H]4c4cncc(C#N)c4)CC3)n2)CC1 [compound 77, 2-[4-[(3S)-3-(5-cyano-3-pyridyl)isoxazolidine-2-carbonyl]-1-piperidyl]-N-[2-(1-methylcyclo-propyl)ethyl]pyrimidine-4-carboxamide] | – | – | 28.1 nM | 0.0385 µM | – |
| CC(C)(C)OC(=O)N1CC(NC(=O)c2ccnc(N3CCC(C(=O)N4OCC[C@H]4c4cncc(C#N)c4)CC3)n2)C1 [compound 78, Tert-butyl 3-[[2-[4-[(3S)-3-(5-cyano-3-pyridyl)isoxazolidine-2-carbonyl]-1-piperidyl]pyrimidine-4-carbonyl]amino]azetidine-1-carboxylate] | – | – | 52.9 nM | 0.316 µM | – |
